Source: the PolyMetriX glass transition set

| Structure (SMILES) | glass transition temperature |
| --- | --- |
| */C(CC)=C(/*)c1ccccc1 (repeat unit) | 200.00 °C |
| *CC#CCOC(=O)CCCCCCCCCCC(=O)O* (repeat unit) | -27.00 °C |
| *CCCC(=O)N* (repeat unit) | 62.80 °C |
| *CCCC(=O)Nc1ccc(Cc2ccc(NC(=O)CCCN3C(=O)c4ccc(C(=O)c5ccc6c(c5)C(=O)N(*)C6=O)cc4C3=O)cc2)cc1 (repeat unit) | 195.00 °C |
| *CCCC(=O)O* (repeat unit) | 1.50 °C |
| *CCCC(=O)Oc1ccc(OC(=O)c2ccc3c(c2)C(=O)N(*)C3=O)cc1 (repeat unit) | 132.00 °C |
| *CCCC(C)(C)CCCNC(=O)c1ccc(C(=O)N*)cc1 (repeat unit) | 152.00 °C |
| *CCCC(C)(C)CNC(=O)c1cccc(C(=O)N*)c1 (repeat unit) | 153.00 °C |
| *CCCC(C)CN1C(=O)c2ccc(C(=O)Oc3ccc(-c4ccc(OC(=O)c5ccc6c(c5)C(=O)N(*)C6=O)cc4)cc3)cc2C1=O (repeat unit) | 155.00 °C |
| *CCCC1CC(=O)N(*)C(=O)C1 (repeat unit) | 90.00 °C |
| *CCCCCC(=O)Nc1ccc(Cc2ccc(NC(=O)CCCCCN3C(=O)c4ccc(C(=O)c5ccc6c(c5)C(=O)N(*)C6=O)cc4C3=O)cc2)cc1 (repeat unit) | 187.00 °C |
| *CCCCCC(=O)Nc1ccc(NC(=O)CCCCCN2C(=O)c3ccc(C(=O)c4ccc5c(c4)C(=O)N(*)C5=O)cc3C2=O)cc1 (repeat unit) | 200.00 °C |
| *CCCCCC(=O)Nc1ccc(Oc2ccc(NC(=O)CCCCCN3C(=O)c4ccc(C(=O)c5ccc6c(c5)C(=O)N(*)C6=O)cc4C3=O)cc2)cc1 (repeat unit) | 195.00 °C |
| *CCCCCC(=O)Nc1ccc(Oc2cccc(NC(=O)CCCCCN3C(=O)c4ccc(C(=O)c5ccc6c(c5)C(=O)N(*)C6=O)cc4C3=O)c2)cc1 (repeat unit) | 170.00 °C |
| *CCCCCC(=O)Oc1ccc(C2(c3ccc(OC(=O)c4ccc5c(c4)C(=O)N(*)C5=O)cc3)CCCCC2)cc1 (repeat unit) | 122.00 °C |
| *CCCCCC(=O)Oc1ccc(OC(=O)c2ccc3c(c2)C(=O)N(*)C3=O)cc1 (repeat unit) | 89.00 °C |
| *CCCCCC(=O)Oc1ccc2ccc(OC(=O)c3ccc4c(c3)C(=O)N(*)C4=O)cc2c1 (repeat unit) | 113.00 °C |
| *CCCCCCC(=O)N* (repeat unit) | 52.00 °C |
| *CCCCCCC(=O)O* (repeat unit) | -14.00 °C |
| *CCCCCCCCC(*)Cl (repeat unit) | -33.00 °C |
| *CCCCCCCCC(=O)N* (repeat unit) | 48.00 °C |
| *CCCCCCCCCC(c1ccc(O)cc1)C(*)c1ccc(O)cc1C (repeat unit) | -1.00 °C |
| *CCCCCCCCCCC(=O)N* (repeat unit) | 46.00 °C |
| *CCCCCCCCCCC(=O)Nc1ccc(NC(=O)CCCCCCCCCCN2C(=O)c3ccc(C(=O)c4ccc5c(c4)C(=O)N(*)C5=O)cc3C2=O)cc1 (repeat unit) | 125.00 °C |
| *CCCCCCCCCCC(=O)Nc1ccc(Oc2ccc(Oc3ccc(NC(=O)CCCCCCCCCCN4C(=O)c5ccc(C(=O)c6ccc7c(c6)C(=O)N(*)C7=O)cc5C4=O)cc3)cc2)cc1 (repeat unit) | 122.00 °C |

| Structure (SMILES) | glass transition temperature |
| --- | --- |
| *CCCCCCCCCCC(=O)O* (repeat unit) | -46.0 °C |
| *CCCCCCCCCCCC(=O)Oc1ccc(C2(c3ccc(OC(=O)c4ccc5c(c4)C(=O)N(*)C5=O)cc3)CCCCC2)cc1 (repeat unit) | 96.00 °C |
| *CCCCCCCCCCCC(=O)Oc1ccc2cc(OC(=O)CCCCCCCCCCCn3c(=O)c4cc5c(=O)n(*)c(=O)c5cc4c3=O)ccc2c1 (repeat unit) | 62.00 °C |
| *CCCCCCCCCCCC(=O)Oc1ccc2ccc(OC(=O)c3ccc4c(c3)C(=O)N(*)C4=O)cc2c1 (repeat unit) | 98.00 °C |
| *CCCCCCCCCCCC(c1ccc(O)cc1)C(*)c1ccc(O)cc1C (repeat unit) | 4.00 °C |
| *CCCCCCCCCCCCCCCCCCNC(=O)CCCCCCCCCCCCCCCCC(=O)N* (repeat unit) | 50.00 °C |
| *CCCCCCCCCCCCCNC(=O)CCCCCCCCCCCC(=O)N* (repeat unit) | 56.50 °C |
| *CCCCCCCCCCCCNC(=O)CCCCCCCCCCCCCCCCCCC(=O)N* (repeat unit) | 221.60 °C |
| *CCCCCCCCCCCNC(=O)CCCCCCCCCCC(=O)N* (repeat unit) | 39.00 °C |
| *CCCCCCCCCCNC(=O)CCCCCCCCCCCCCCC(=O)N* (repeat unit) | 45.00 °C |
| *CCCCCCCCNC(=O)CCCCCCCCCCC(=O)N* (repeat unit) | 50.00 °C |
| *CCCCCCN(C(=O)C(F)(F)C(F)(F)C(F)(F)C(=O)N(*)C(C)C)C(C)C (repeat unit) | 142.50 °C |
| *CCCCCCN(C)C(=O)CCC(=O)N(*)C (repeat unit) | 7.50 °C |
| *CCCCCCNC(=O)CCCCCCCCCCCCCCC(=O)N* (repeat unit) | 40.00 °C |
| *CCCCCCOc1ccc(NC(=O)c2cc(C(=O)Nc3ccc(O*)cc3)cc(C(C)(C)C)c2)cc1 (repeat unit) | 166.00 °C |
| *CCCCCCSS* (repeat unit) | -74.00 °C |
| *CCCCC[Si](*)(C)c1ccccc1 (repeat unit) | -10.40 °C |
| *CCCCP(C)(=O)CCCNC(=O)CCCCC(=O)N* (repeat unit) | 59.00 °C |
| *CCCN(*)C (repeat unit) | -37.50 °C |
| *CCCN(C)c1ccc(C(=O)c2ccc(N(*)C)cc2)cc1 (repeat unit) | 101.00 °C |
| *CCCP(CCCCCCCC)CCCNC(=O)CCCCC(=O)N* (repeat unit) | 12.00 °C |
| *CCC[Si](*)(C)CCC[Si](C)(C)C (repeat unit) | -46.00 °C |
| *CCC[Si](*)(C)O[Si](C)(C)CCCOc1ccc(C(=O)Oc2ccc(C#N)cc2)cc1 (repeat unit) | -19.10 °C |
| *CCC[Si](*)(C)c1cccc(C)c1 (repeat unit) | -25.00 °C |
| *CCC[Si](*)(c1ccccc1)c1ccc(N(C)C)cc1 (repeat unit) | 52.00 °C |

| Structure (SMILES) | glass transition temperature |
| --- | --- |
| *CCC[Si](C)(C)O[Si](C)(C)CCCN1C(=O)c2ccc(-c3ccc4c(c3)C(=O)N(*)C4=O)cc2C1=O (repeat unit) | 75.00 °C |
| *CC[CH2][Sn]([CH3])([CH3])[CH2]CCOC(=O)C(CCCCCCOc1ccc(-c2ccc(OCc3ccc([N+](=O)[O-])cc3)cc2)cc1)C(=O)O* (repeat unit) | 40.50 °C |
| *CCOCCOC(=O)CCCCCCCCCCC(=O)O* (repeat unit) | -71.00 °C |
| *CCc1ccc(CCNC(=O)CCCCCCCCCC(=O)N*)cc1 (repeat unit) | 96.00 °C |
| *CCc1ccc(CCNC(=O)CCCCCCCCCCCCC(=O)N*)cc1 (repeat unit) | 93.00 °C |
| *Cc1ccc(CNC(=O)CCCCCCCCCCCCCC(=O)N*)cc1 (repeat unit) | 90.00 °C |
| *NC1CCC(CC2CCC(NC(=O)CCCCCCCCCCC(*)=O)CC2)CC1 (repeat unit) | 142.00 °C |
| *Nc1ccc(Cc2ccc(NC(=O)c3cc(NC(=O)C(C(C)CC)N4C(=O)c5ccccc5C4=O)cc(C(*)=O)c3)cc2)cc1 (repeat unit) | 195.00 °C |
| *Nc1ccc(Cc2ccc(NC(=O)c3cc(NC(=O)CCCCCN4C(=O)c5ccccc5C4=O)cc(C(*)=O)c3)cc2)cc1 (repeat unit) | 195.00 °C |
| *Nc1ccc(Cc2ccc(NC(=O)c3cc(NC(=O)c4ccccc4)cc(C(*)=O)c3)cc2)cc1 (repeat unit) | 285.00 °C |
| *Nc1ccc(NC(=O)c2cc(-c3ccc(C(=O)OCC)c(C(*)=O)c3)ccc2C(=O)OCC)cc1 (repeat unit) | 231.70 °C |
| *Nc1ccc(NC(=O)c2cc(NC(=O)c3ccccc3)cc(C(*)=O)c2)cc1 (repeat unit) | 321.00 °C |
| *O[Si](C)(C)CCCCCCCC[Si](*)(C)C (repeat unit) | -88.00 °C |
| *O[Si](C)(C)CCCCCC[Si](*)(C)C (repeat unit) | -90.00 °C |
| *Oc1ccc(C2(c3ccc(OC(=O)CCCCCCCCCCC(*)=O)cc3)c3ccccc3-c3ccccc32)cc1 (repeat unit) | 117.00 °C |
| *Oc1ccc(NC(=O)CCCCCCCCCC(=O)Nc2ccc(*)cc2)cc1 (repeat unit) | 150.00 °C |
| *Oc1ccc(NC(=O)c2cc(NC(=O)c3ccc(OC(C)=O)cc3)cc(C(=O)Nc3ccc(Oc4ccc(-c5ccc(*)cc5)cc4)cc3)c2)cc1 (repeat unit) | 252.00 °C |
| *Oc1ccc(S(=O)(=O)N(C)CCCCN(C)S(=O)(=O)c2ccc(Oc3ccc(C(C)(C)c4ccc(*)cc4)cc3)cc2)cc1 (repeat unit) | 120.00 °C |
| *Oc1cccc(NC(=O)CCCCCCCCCCC(=O)Nc2ccc(*)cc2)c1 (repeat unit) | 110.00 °C |
| *c1ccc(NC(=O)CCCCCCCCCCC(=O)Nc2ccc(S(*)(=O)=O)cc2)cc1 (repeat unit) | 160.00 °C |
| *c1ccc(OC(=O)CCCCCCCCCCCCCCCCCCCCC(=O)Oc2ccc(N3C(=O)c4ccc(-c5ccc6c(c5)C(=O)N(*)C6=O)cc4C3=O)cc2)cc1 (repeat unit) | 140.00 °C |
| *c1ccc(Oc2ccc(NC(=O)c3cc(NC(=O)c4ccc(OC(C)=O)cc4)cc(C(=O)Nc4ccc(Oc5ccc(-c6nnc(*)o6)cc5)cc4)c3)cc2)cc1 (repeat unit) | 270.00 °C |
| *c1ccc2c(c1)C(=O)N(c1ccc(Oc3ccc(N4C(=O)c5ccc(C(C)(C)CCCCCCCCC(*)(C)C)cc5C4=O)cc3)cc1)C2=O (repeat unit) | 123.7 °C |
| *c1ncnc(N(CCCCCCCCCCN(*)c2ccccc2)c2ccccc2)n1 (repeat unit) | 55.00 °C |
| *c1ncnc(N(CCCCN(*)c2ccccc2)c2ccccc2)n1 (repeat unit) | 91.00 °C |
